Activity data for 7 compounds are collected here from ChEMBL document CHEMBL3046846, “Synthesis of N-Alkyl-2, 3-dimethyl-5-[N-(5-halo-2-methylphenyl)carbamoyl]-6-pyrazinecarboxamides and Their Herbicidal Activity” (J Pestic Sci, 1997).

Bounds are passed on as bounds.

One data set relates to Abutilon theophrasti. The data set is described as follows: Herbicidal activity against Abutilon theophrasti (velvetleaf) at 5000 g/ha after 2 weeks. In kind it is functional.
The test system of the next data set is Glycine max. The data set is described as follows: Herbicidal activity against Glycine max (soybean) at 5000 g/ha after 2 weeks. In kind it is organism-based. The conditions noted are these: in vivo, 336 h.
A further data set has as its system Xanthium strumarium. The data set is described as follows: Herbicidal activity against Xanthium strumarium (cocklebur) 5000 g/ha after 2 weeks. Type of data set: functional.
A further data set has as its system Triticum aestivum. The data set is described as follows: Herbicidal activity against Triticum aestivum (wheat) at 5000 g/ha after 2 weeks. In kind it is ADME, organism-based. The conditions noted are these: in vivo, 336 h.
In another data set the test system is Echinochloa crus-galli. The data set is described as follows: Herbicidal activity against Echinochloa crus-galli (barnyard grass) at 5000 g/ha after 2 weeks. In kind it is functional.
A further data set deals with Veronica persica. The data set is described as follows: Herbicidal activity against Veronica persica at 5000 g/ha after 2 weeks. In kind it is functional.
In another data set the test system is Avena fatua. Description: Herbicidal activity against Avena fatua at 5000 g/ha after 2 weeks. Type of data set: functional.
Another data set relates to Galium spurium. Description: Herbicidal activity against Galium spurium var. echinospermon (Wally.) Hayek at 5000 g/ha after 2 weeks. In kind it is functional.

Take `Cc1ccc(Cl)cc1NC(=O)c1nc(C)c(C)nc1C(=O)NCCC(C)C`: the Activity is recorded as 95% in the data set on Abutilon theophrasti; less than 10% in the data set with Glycine max; 30% with Xanthium strumarium; less than 10% in the data set on Triticum aestivum; 70% with Echinochloa crus-galli; 95% with Veronica persica. The results for the Activity in the data set on Avena fatua and in the data set on Galium spurium were 30% and 10%, respectively.

As to `CCCCCNC(=O)c1nc(C)c(C)nc1C(=O)Nc1cc(Cl)ccc1C`, the Activity in the data set on Abutilon theophrasti, in the data set on Glycine max, in the data set with Xanthium strumarium, in the data set on Triticum aestivum, in the data set on Echinochloa crus-galli and in the data set with Veronica persica was less than 10% in each case. For the same compound, the Activity with Avena fatua and in the data set with Galium spurium was less than 10% each time.

Take `CCCCCNC(=O)c1nc(C)c(C)nc1C(=O)Nc1cc(F)ccc1C`: the Activity in the data set with Abutilon theophrasti was 30%; with Glycine max it was less than 10%; in the data set on Xanthium strumarium, less than 10%; with Triticum aestivum, less than 10%; in the data set with Echinochloa crus-galli, 30%; in the data set with Veronica persica it was 30%. For the same compound, the Activity in the data set with Avena fatua and in the data set on Galium spurium was less than 10% throughout.

With `CNC(=O)c1nc(C)c(C)nc1C(=O)Nc1cc(F)ccc1C`, the Activity in the data set with Abutilon theophrasti was less than 10%; in the data set on Glycine max, less than 10%; in the data set on Xanthium strumarium, less than 10%; in the data set with Triticum aestivum it was less than 10%; with Echinochloa crus-galli, less than 10%; with Veronica persica, 50%. Also, the Activity in the data set on Avena fatua and in the data set with Galium spurium was less than 10% in each case.

For the compound `Cc1ccc(F)cc1NC(=O)c1nc(C)c(C)nc1C(=O)NCCC(C)C`, the Activity is 95% with Abutilon theophrasti; less than 10% with Glycine max; less than 10% with Xanthium strumarium; 10% in the data set on Triticum aestivum; 30% with Echinochloa crus-galli; 95% in the data set with Veronica persica. Also, the Activity with Avena fatua is reported as 30%; with Galium spurium, less than 10%.

In the case of `CCNC(=O)c1nc(C)c(C)nc1C(=O)Nc1cc(F)ccc1C`, the Activity is recorded as 50% with Abutilon theophrasti; less than 10% in the data set on Glycine max; 70% in the data set with Xanthium strumarium; less than 10% in the data set with Triticum aestivum; less than 10% in the data set on Echinochloa crus-galli; 95% in the data set with Veronica persica. Moreover, the Activity in the data set with Avena fatua is 10%; with Galium spurium, less than 10%.

Regarding `CNC(=O)c1nc(C)c(C)nc1C(=O)Nc1cc(Cl)ccc1C`, the Activity in the data set with Abutilon theophrasti is recorded as less than 10%; with Glycine max, less than 10%; in the data set on Xanthium strumarium it was less than 10%; in the data set on Triticum aestivum, 10%; in the data set on Echinochloa crus-galli, 10%; in the data set with Veronica persica, 95%. Besides, the Activity was less than 10% with Avena fatua and 10% in the data set on Galium spurium.
